Laboratory results reported in ChEMBL document CHEMBL1201862, “PubChem BioAssay data set” (2004).
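Compound exposure: 48 hours, 5 concentrations, 96-well plates. GI50 marks 50% less growth.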 The source made the active and inactive calls. Rule as the data show it: active = GI50 up to about 1.1 µM and inactive = higher.

Tests used:
Test in all cases: growth of human tumour cells (NCI), 48 h
A498 = test system: A498
HCT-116 = test system: HCT-116
CAKI-1 = test system: CAKI-1
HOP-92 = test system: HOP-92
SK-MEL-5 = test system: SK-MEL-5
EKVX = test system: EKVX
K562 = test system: K562
HL-60 = test system: HL-60
OVCAR-4 = test system: OVCAR-4
LOX IMVI = test system: LOX IMVI
NCI-H460 = test system: NCI-H460
UO-31 = test system: UO-31
HOP-62 = test system: HOP-62
HT-29 = test system: HT-29
Malme-3M = test system: Malme-3M
IGROV-1 = test system: IGROV-1
COLO 205 = test system: COLO 205
SNB-19 = test system: SNB-19
MCF7 = test system: MCF7
OVCAR-3 = test system: OVCAR-3

| SMILES | GI50 (A498) | GI50 (HCT-116) | GI50 (CAKI-1) | GI50 (HOP-92) | GI50 (SK-MEL-5) | GI50 (EKVX) | GI50 (K562) | GI50 (HL-60) | GI50 (OVCAR-4) | GI50 (LOX IMVI) | GI50 (NCI-H460) | GI50 (UO-31) | GI50 (HOP-62) | GI50 (HT-29) | GI50 (Malme-3M) | GI50 (IGROV-1) | GI50 (COLO 205) | GI50 (SNB-19) | GI50 (MCF7) | GI50 (OVCAR-3) |
| --- | --- | --- | --- | --- | --- | --- | --- | --- | --- | --- | --- | --- | --- | --- | --- | --- | --- | --- | --- | --- |
| CCOC(=O)C(=O)NC12CC3CC(CC(C3)C1)C2 | > 100 µM (inactive) | > 100 µM (inactive) | > 100 µM (inactive) | > 100 µM (inactive) | > 100 µM (inactive) | > 100 µM (inactive) | > 100 µM (inactive) | > 100 µM (inactive) | > 100 µM (inactive) | 0.208 µM (active) | > 100 µM (inactive) | > 100 µM (inactive) | > 100 µM (inactive) | > 100 µM (inactive) | > 100 µM (inactive) | > 100 µM (inactive) | > 100 µM (inactive) | > 100 µM (inactive) | – | – |
| CN1C(=O)CC(=O)N1/C(=C/c1ccccc1)c1ccccc1 | – | > 100 µM (inactive) | 23.7 µM (inactive) | 75.5 µM (inactive) | 72.8 µM (inactive) | > 100 µM (inactive) | 55.6 µM (inactive) | – | 49.8 µM (inactive) | 17 µM (inactive) | 48 µM (inactive) | 18.1 µM (inactive) | > 100 µM (inactive) | > 100 µM (inactive) | – | 18.2 µM (inactive) | 41 µM (inactive) | > 100 µM (inactive) | 47.2 µM (inactive) | 39.3 µM (inactive) |
| O=C(OCc1ccccc1)OOC(=O)OCc1ccccc1 | > 100 µM (inactive) | > 100 µM (inactive) | > 100 µM (inactive) | > 100 µM (inactive) | > 100 µM (inactive) | > 100 µM (inactive) | > 100 µM (inactive) | > 100 µM (inactive) | > 100 µM (inactive) | – | > 100 µM (inactive) | > 100 µM (inactive) | > 100 µM (inactive) | > 100 µM (inactive) | > 100 µM (inactive) | > 100 µM (inactive) | > 100 µM (inactive) | > 100 µM (inactive) | – | > 100 µM (inactive) |
| COC(=O)C(Cc1ccc(N(C)C)cc1)(NC(=O)c1ccccc1)P(=O)(OC)OC (stereo not drawn) | > 100 µM (inactive) | > 100 µM (inactive) | > 100 µM (inactive) | > 100 µM (inactive) | > 100 µM (inactive) | > 100 µM (inactive) | > 100 µM (inactive) | > 100 µM (inactive) | > 100 µM (inactive) | > 100 µM (inactive) | > 100 µM (inactive) | > 100 µM (inactive) | > 100 µM (inactive) | > 100 µM (inactive) | – | > 100 µM (inactive) | > 100 µM (inactive) | > 100 µM (inactive) | – | – |
| N/N=C(\C(=O)Nc1c(Cl)cc([N+](=O)[O-])cc1Cl)C(c1cnc2ccc([N+](=O)[O-])cc2n1)[N+](=O)[O-] (stereo not drawn) | > 100 µM (inactive) | > 100 µM (inactive) | 66.1 µM (inactive) | > 100 µM (inactive) | > 100 µM (inactive) | 37.8 µM (inactive) | 46.6 µM (inactive) | 28.1 µM (inactive) | > 100 µM (inactive) | > 100 µM (inactive) | > 100 µM (inactive) | 87.7 µM (inactive) | > 100 µM (inactive) | > 100 µM (inactive) | – | > 100 µM (inactive) | > 100 µM (inactive) | > 100 µM (inactive) | – | – |
| CCOC(=O)C1=NN(c2ccc(Cl)cc2)C2=CC(C)=NN(C)C(=S)N21 | – | 36.6 µM (inactive) | 19.9 µM (inactive) | 30.8 µM (inactive) | > 100 µM (inactive) | 29.9 µM (inactive) | > 100 µM (inactive) | > 100 µM (inactive) | 37.6 µM (inactive) | 47.1 µM (inactive) | > 100 µM (inactive) | > 100 µM (inactive) | – | > 100 µM (inactive) | – | 44.8 µM (inactive) | > 100 µM (inactive) | 41.5 µM (inactive) | > 10 µM (inactive) | 56.5 µM (inactive) |
| CC(=C(c1ccccc1)c1ccccc1)N1C(=O)CC(=O)N1C | – | 74.6 µM (inactive) | 21.1 µM (inactive) | 45.5 µM (inactive) | 95.7 µM (inactive) | 53.3 µM (inactive) | 55.5 µM (inactive) | – | 32.1 µM (inactive) | 17 µM (inactive) | 29.2 µM (inactive) | 17.1 µM (inactive) | 27.5 µM (inactive) | > 100 µM (inactive) | – | 18.3 µM (inactive) | > 100 µM (inactive) | 81.7 µM (inactive) | 43.8 µM (inactive) | 32.4 µM (inactive) |
| COc1c2c(cc3c(CCc4ccccc4)cc(=O)oc13)CCC(C)(C)O2 | – | > 100 µM (inactive) | – | 2.34 µM (inactive) | > 100 µM (inactive) | > 100 µM (inactive) | > 100 µM (inactive) | > 100 µM (inactive) | – | > 100 µM (inactive) | > 100 µM (inactive) | > 100 µM (inactive) | > 100 µM (inactive) | > 100 µM (inactive) | > 100 µM (inactive) | > 100 µM (inactive) | > 100 µM (inactive) | – | – | > 100 µM (inactive) |
| Cc1ccnc2nc(N)ccc12 | > 100 µM (inactive) | > 100 µM (inactive) | > 100 µM (inactive) | – | > 100 µM (inactive) | > 100 µM (inactive) | > 100 µM (inactive) | > 100 µM (inactive) | > 100 µM (inactive) | – | > 100 µM (inactive) | > 100 µM (inactive) | – | > 100 µM (inactive) | > 100 µM (inactive) | > 100 µM (inactive) | > 100 µM (inactive) | > 100 µM (inactive) | – | – |
| COc1ccc(/C(Cl)=C(\C=O)c2ccc(F)cc2)cc1 | 17.4 µM (inactive) | 5.08 µM (inactive) | 8.18 µM (inactive) | 4.29 µM (inactive) | 9.06 µM (inactive) | 16.9 µM (inactive) | 4.78 µM (inactive) | 2.72 µM (inactive) | – | 7.03 µM (inactive) | 4.46 µM (inactive) | 8.15 µM (inactive) | 9.59 µM (inactive) | 7.41 µM (inactive) | 13.7 µM (inactive) | 18.9 µM (inactive) | 16.6 µM (inactive) | 17.9 µM (inactive) | – | 19.1 µM (inactive) |
| C[Si](C)(C)/C(I)=C/CO | 38.6 µM (inactive) | 14.3 µM (inactive) | – | 24 µM (inactive) | 19 µM (inactive) | 29.9 µM (inactive) | 19.4 µM (inactive) | – | 38.3 µM (inactive) | 19.3 µM (inactive) | 19.7 µM (inactive) | 34.4 µM (inactive) | – | 20.5 µM (inactive) | 27.1 µM (inactive) | 25.1 µM (inactive) | 16.3 µM (inactive) | 29.6 µM (inactive) | – | 24.7 µM (inactive) |
| O=C1C2C3C=C4c5ccccc5N(c5ccccc5)C4(C2C(=O)N1Cc1ccccc1)C1C(=O)N(Cc2ccccc2)C(=O)C31 (stereo not drawn) | > 100 µM (inactive) | > 100 µM (inactive) | > 10 µM (inactive) | 39.5 µM (inactive) | – | – | > 100 µM (inactive) | > 100 µM (inactive) | – | 78.9 µM (inactive) | > 100 µM (inactive) | > 100 µM (inactive) | > 10 µM (inactive) | > 100 µM (inactive) | > 100 µM (inactive) | – | > 100 µM (inactive) | > 100 µM (inactive) | – | – |
| C[n+]1[se]c2ccccc2c1Cl | > 59.4 µM (inactive) | 16.9 µM (inactive) | > 41.8 µM (inactive) | 7.31 µM (inactive) | 16.6 µM (inactive) | 24.1 µM (inactive) | 36.4 µM (inactive) | 7.89 µM (inactive) | 31 µM (inactive) | 19.9 µM (inactive) | 35.3 µM (inactive) | 24.8 µM (inactive) | > 40.7 µM (inactive) | 28.4 µM (inactive) | 23.3 µM (inactive) | 31 µM (inactive) | > 43.9 µM (inactive) | > 67.8 µM (inactive) | – | 27 µM (inactive) |
| O=S1(=O)CC#CC[C@@H](CO)[C@@H](CO)CC#CC1 | – | 61.2 µM (inactive) | – | 31.5 µM (inactive) | > 100 µM (inactive) | > 100 µM (inactive) | 59 µM (inactive) | 53.7 µM (inactive) | > 100 µM (inactive) | 69.3 µM (inactive) | > 100 µM (inactive) | > 100 µM (inactive) | > 100 µM (inactive) | > 100 µM (inactive) | 21.7 µM (inactive) | 43.1 µM (inactive) | – | – | – | > 100 µM (inactive) |
| COC(=O)C(/C(=N/NC(N)=S)C(=O)Nc1ccccc1[N+](=O)[O-])c1cnc2ccccc2n1 (stereo not drawn) | > 100 µM (inactive) | > 100 µM (inactive) | > 100 µM (inactive) | > 100 µM (inactive) | > 100 µM (inactive) | > 100 µM (inactive) | > 100 µM (inactive) | > 100 µM (inactive) | > 100 µM (inactive) | > 100 µM (inactive) | > 100 µM (inactive) | > 100 µM (inactive) | > 100 µM (inactive) | > 100 µM (inactive) | > 100 µM (inactive) | > 100 µM (inactive) | > 100 µM (inactive) | > 100 µM (inactive) | – | – |
| CC12CCC(=O)[C@@]1(C)CCCC2O (stereo partly drawn) | – | > 100 µM (inactive) | > 100 µM (inactive) | – | > 100 µM (inactive) | > 100 µM (inactive) | > 100 µM (inactive) | > 100 µM (inactive) | > 100 µM (inactive) | > 100 µM (inactive) | > 100 µM (inactive) | > 100 µM (inactive) | > 100 µM (inactive) | > 100 µM (inactive) | > 100 µM (inactive) | > 100 µM (inactive) | > 100 µM (inactive) | > 100 µM (inactive) | > 100 µM (inactive) | – |
